The text below walks through data of ChEMBL document CHEMBL4417640, “Inhibitors of mtor-deptor interactions and methods of use thereof” (2018).

In general, IC50 refers to the concentration that inhibits the measured activity by half.

Data set [1] concerns MM1.S. Kind of data set: Cytotoxicity in human MM1S cells incubated for 48 hrs by MTT assay. Format: functional, cell-based. For orientation: Formazan colour is commonly taken as a measure of viable cells.
Data set [2] has as its target DEPTOR/mTOR (Homo sapiens) (UniProt P42345+Q8TB45). Kind of data set: Inhibition of DEPTOR-mTOR interaction (unknown origin) by yeast-2-hybrid screen based assay. The format is protein assay.
Data set [3] can be described thus: Toxicity in normal hematopoietic colony forming cells (unknown origin) assessed as reduction in colony formation at 0.5 uM.
In data set [4] the target is T1, DEP domain-containing mTOR-interacting protein (Homo sapiens, UniProt Q8TB45). Kind of data set: Inhibition of DEPTOR in human RPMI8226 cells assessed as increase in mTOR kinase activity by measuring induction of p70 phosphorylation incubated for 6 hrs by Western blot analysis. The format is cell-based. Background: In western blotting, separated proteins are transferred to a membrane and probed.

Data set [5] is described as follows: Therapeutic index, ratio of IC50 for cytotoxicity against human PBL cells incubated for 48 hrs by MTT assay to IC50 for cytotoxicity against human MM1S cells incubated for 48 hrs by MTT assay. Format: toxicity, cell-based. Particulars: PBL cells versus MM1S cells, read-out: Ratio IC50.
Data set [6] has as its target T1, DEP domain-containing mTOR-interacting protein. Kind of data set: Inhibition of DEPTOR in human RPMI8226 cells assessed as increase in mTOR kinase activity by measuring induction of p21 expression at 0.25 to 1 uM uM by Western blot analysis. Format: cell-based.
Data set [7] concerns RPMI-8226. Kind of data set: Induction of apoptosis in human RPMI8226 cells at 0.12 to 2 uM by flow cytometry. The format is functional, cell-based. Background: A flow cytometer gives signals particle by particle.
Data set [8] addresses T1, DEP domain-containing mTOR-interacting protein. Kind of data set: Inhibition of DEPTOR in human RPMI8226 cells assessed as increase in mTOR kinase activity by measuring induction of p21 expression at 0.5 to 2 uM uM by Western blot analysis. Format: cell-based.
Data set [9] deals with MM1.S. Kind of data set: Cytotoxicity in human MM1S cells at 0.12 to 1 uM incubated for 48 hrs in presence of RAPTOR siRNA by MTT assay. The format is functional, cell-based.
Data set [10] concerns the target T1, DEP domain-containing mTOR-interacting protein. Kind of data set: Inhibition of DEPTOR in human RPMI8226 cells assessed as induction of mTORC1 activation at 0.5 uM incubated for 6 hrs co-immunoprecipitation assay. Format: cell-based.
The target is the same in data set [11]. Kind of data set: Inhibition of DEPTOR in human RPMI8226 cells assessed as induction of mTORC1 activation at 1 uM incubated for 6 hrs co-immunoprecipitation assay. Format: cell-based.
Data set [12] has as its system OPM-2. Kind of data set: Induction of apoptosis in human OPM2 cells at 0.12 to 2 uM incubated for 48 hrs incubated for 48 hrs by flow cytometry. Format: functional, cell-based.
Data set [13] in a line: Toxicity in normal hematopoietic colony forming cells (unknown origin) assessed as reduction in colony formation at 10 uM.
The test system of another data set is NCI-H929. Kind of data set: Induction of apoptosis in human NCI-H929 cells at 0.12 to 2 uM incubated for 48 hrs by flow cytometry. Format: functional, cell-based.
For data set [14], the system named is OPM-2. Kind of data set: Cytotoxicity in human OPM2 cells incubated for 48 hrs by MTT assay. The format is functional, cell-based. Particulars: OPM-2, 48 h.
Data set [15] concerns RPMI-8226. Kind of data set: Antitumor activity against human RPMI8226 cells xenografted in mouse assessed as reduction in tumor volume at 20 mg/kg, ip dosed daily for 4 days. The format is functional, organism-based.
For data set [16], the system named is RPMI-8226. Kind of data set: Toxicity in human RPMI8226 cells at 0.5 uM incubated for 6 hrs. Particulars: rpmi-8226, 6 h. The format is cell-based.
Data set [17] deals with RPMI-8226. Kind of data set: Toxicity in human RPMI8226 cells at 1 to 2 uM incubated for 6 hrs. The format is cell-based. Particulars: rpmi-8226, 6 h.
Data set [18] concerns RPMI-8226. Kind of data set: Induction of p70 degradation in human RPMI8226 cells at 1 to 2 uM incubated for 6 hrs by Western blot analysis. The format is cell-based. Particulars: rpmi-8226, 6 h.
Data set [19] deals with RPMI-8226. Kind of data set: Toxicity in human RPMI8226 cells at 0.05 to 0.2 uM incubated for 6 hrs. Format: cell-based. Particulars: rpmi-8226, 6 h.
The subject of data set [20] is RPMI-8226. Kind of data set: Induction of apoptosis in human RPMI8226 cells transfected with DEPTOR at 0.12 to 1 uM by flow cytometry. The format is functional, cell-based.
In data set [21] the target is T1, DEP domain-containing mTOR-interacting protein. Kind of data set: Induction of proteasome-dependent DEPTOR degradation in human RPMI8226 cells at 0.5 to 2 uM. The format is cell-based.
In data set [22] the test system is RPMI-8226. Kind of data set: Toxicity in human RPMI8226 cells xenografted in mouse assessed as effect on normal WBC counts at 20 mg/kg, ip dosed daily for 4 days. The format is organism-based. Particulars: in vivo, 96 h.
Data set [23] deals with RPMI-8226. Kind of data set: Toxicity in human RPMI8226 cells xenografted in mouse assessed as effect on hematocrit at 20 mg/kg, ip dosed daily for 4 days. Format: organism-based. Particulars: in vivo, 96 h.
Data set [24] relates to RPMI-8226. Kind of data set: Cytotoxicity in human RPMI8226 cells transfected with DEPTOR at 0.25 to 1 uM incubated for 48 hrs by MTT assay. Format: functional, cell-based.
Data set [25] has as its system RPMI-8226. Kind of data set: Toxicity in human RPMI8226 cells xenografted in mouse assessed as effect on hemoglobin concentration at 20 mg/kg, ip dosed daily for 4 days. The format is organism-based. Particulars: in vivo, 96 h.
Data set [26] relates to MM1.S. Kind of data set: Cytotoxicity in human MM1S cells at 0.25 to 2 uM incubated for 48 hrs in presence of RAPTOR siRNA by MTT assay. Format: functional, cell-based.
In data set [27] the test system is RPMI-8226. Kind of data set: Toxicity in human RPMI8226 cells xenografted in mouse assessed as effect on platelet count at 20 mg/kg, ip dosed daily for 4 days. Particulars: in vivo, 96 h. The format is organism-based.

Calls of active or inactive are those of the source. The rule behind the calls is not given here.

T1 sequence (Q8TB45 whole entry, the tested form may be a part): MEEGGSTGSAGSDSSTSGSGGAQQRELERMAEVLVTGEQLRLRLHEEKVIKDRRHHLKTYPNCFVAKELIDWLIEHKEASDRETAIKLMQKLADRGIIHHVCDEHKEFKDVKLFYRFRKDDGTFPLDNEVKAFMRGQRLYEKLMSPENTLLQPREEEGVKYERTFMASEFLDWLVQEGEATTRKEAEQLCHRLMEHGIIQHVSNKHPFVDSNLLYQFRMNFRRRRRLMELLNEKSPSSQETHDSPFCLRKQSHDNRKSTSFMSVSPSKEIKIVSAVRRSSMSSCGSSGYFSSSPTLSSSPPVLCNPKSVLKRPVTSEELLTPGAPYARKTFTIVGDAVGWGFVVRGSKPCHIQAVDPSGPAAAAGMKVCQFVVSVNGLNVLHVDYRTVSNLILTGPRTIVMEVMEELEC
Sequence of DEPTOR/mTOR (Homo sapiens) (Q8TB45 whole entry, looked up, other chains not shown): as the sequence (Q8TB45 whole entry, the tested form may be a part) above

For `NN=C(c1ccccc1)c1ccccc1`, the IC50 with MM1.S [1] was over 5000 nM.
The molecule `CN(C)N=C1C(Cl)=C(Cl)C(Cl)=C1Cl` came in with an IC50 in the data set on MM1.S [1] of over 3000 nM.
For the molecule `CN(C)c1ccc(/C=C2\C=Cc3ccccc32)cc1F`, the “inhibition activity call (active/inactive)” value in [2] is “Active”. Besides, in data set [3], the Activity result is given as “Toxic”.
As for `COc1cccc(NN=C2C(Cl)=C(Cl)C(Cl)=C2Cl)c1`, in the data set on MM1.S [1], the IC50 was over 3000 nM.
On the same count and under the same terms, the same measure for `Fc1cccc(NN=C2c3ccccc3-c3ccccc32)c1`: over 5000 nM.
Take `CC(C)(C)NN=C1C(Cl)=C(Cl)C(Cl)=C1Cl`: the IC50 in the data set on MM1.S [1] was over 3000 nM; in [4], over 5000 nM.
On to `CC(C)(C)C(=O)NN=C1C(Cl)=C(Cl)C(Cl)=C1Cl`, for which the selectivity ratio at 48 h in data set [5] came out at 14. For the same molecule, in data set [6], the inhibition result is “Active”. Besides, the result in the data set with RPMI-8226 [7] was Active.
Turning to `Fc1ccccc1NN=C1C(Cl)=C(Cl)C(Cl)=C1Cl`, in the data set on MM1.S [1], the IC50 was over 3000 nM.
Consider `Fc1ccc(NN=C2C(Cl)=C(Cl)C(Cl)=C2Cl)cc1`, for which, in data set [5], the selectivity ratio at 48 h amounted to 33. Besides, the inhibition result in [8] is “Active”. The result in the data set on MM1.S [9] was inactive. Also, the “mTORC1 activation (active/not active)” value in data set [10] was “inactive”.
With `CCCCCCCCNS(=O)(=O)c1ccccc1`, in [2], the “inhibition activity call (active/inactive)” value is “Active”.
For `ClC1=C(Cl)C(Cl)=C(Cl)C1=NNC1CCCCC1`, the IC50 in the data set on MM1.S [1] was over 3000 nM; in [4], over 5000 nM.
In the case of `CC(C)(C)OC(=O)NN=C1C(Cl)=C(Cl)C(Cl)=C1Cl`, the selectivity ratio at 48 h in data set [5] was 45.5. Besides, the result with RPMI-8226 [7] was Active. Besides, the inhibition result in data set [8] is “Active”. Further, the result in the data set on MM1.S [9] was inactive. In addition, in [10], the “mTORC1 activation (active/not active)” value is “inactive”.
As for `NN=C1C(Cl)=C(Cl)C(Cl)=C1Cl`, the inhibition entry in data set [11] was “Active”. Moreover, the selectivity ratio at 48 h in data set [5] worked out at 14.3. Besides, the outcome in the data set with OPM-2 [12], in the data set on RPMI-8226 [7], with NCI-H929 and in the data set on RPMI-8226 [15] was Active. The “inhibition activity call (active/inactive)” value in [2] was “Active”. Further, in data set [13], the Activity entry is reported as “Toxic”. Besides, the IC50 in the data set on MM1.S [1] was 3000 to 3300 nM; in [4] it was 1300 nM; with OPM-2 [14] it was 4000 nM. Moreover, the “mTORC1 activation (active/not active)” value in data set [10] is “inactive”.
In the case of `CC(C)(C)OC(=O)NN=C1c2ccccc2-c2ccccc21`, the IC50 in the data set with MM1.S [1] is over 5000 nM.
As for `O=C(NN=C1C(Cl)=C(Cl)C(Cl)=C1Cl)c1ccccc1`, the Activity entry is “Toxic” in the data set with RPMI-8226 [16], “Toxic” in the data set on RPMI-8226 [17], “Toxic” with RPMI-8226 [18] and “Non-Toxic” in the data set on RPMI-8226 [19].
For the molecule `Cc1cccc(NN=C2C(Cl)=C(Cl)C(Cl)=C2Cl)c1`, the IC50 in the data set on MM1.S [1] is over 3000 nM.
`NN=c1c2ccccc2oc2ccccc12` yielded an IC50 with MM1.S [1] of over 5000 nM.
Regarding `O=C(c1ccc(F)cc1)N(N=C1C(Cl)=C(Cl)C(Cl)=C1Cl)C(=O)c1ccc(F)cc1`, the selectivity ratio at 48 h in [5] amounted to 10. Moreover, the outcome in the data set on RPMI-8226 [7] was Active. Moreover, the inhibition result in [8] is “Active”.
With `O=C(O)c1ccc2c(c1)CCC2`, in data set [2], the “inhibition activity call (active/inactive)” value is “Active”.
In the data set on MM1.S [1], `ClC1=C(Cl)C(Cl)=C(Cl)C1=NN(c1ccccc1)c1ccccc1` registered an IC50 of over 3000 nM.
Take `FC(F)(F)c1cccc(NN=C2C(Cl)=C(Cl)C(Cl)=C2Cl)c1`: the result in the data set with RPMI-8226 [20], in the data set on RPMI-8226 [24] and with MM1.S [26] was inactive. Further, the outcome (in [21]; in the data set on OPM-2 [12]; in the data set with RPMI-8226 [7]; in the data set on NCI-H929; in the data set with RPMI-8226 [15]) was Active. Further, in data set [5], the selectivity ratio at 48 h stood at 136. Further, the Activity entry in the data set with RPMI-8226 [22] was “Toxic”; with RPMI-8226 [23], “Non-Toxic”; in the data set with RPMI-8226 [25], “Non-Toxic”; in the data set on RPMI-8226 [27], “Non-Toxic”. For the same molecule, the inhibition result in data set [6] is “Active”. This molecule also yielded a 50% inhibitory concentration (IC50) in the data set with OPM-2 [14] of 300 nM. Also, the “mTORC1 activation (active/not active)” value in [10] is “Active”.
